# Experimental data reported in patent US20240217978A1 (CHONG KUN DANG PHARMACEUTICAL CORP., priority 2021, published 2024).
# Target: human adenosine A2a receptor (Homo sapiens (Human), UniProt P29274)
# Experiment: A2a receptor binding affinity, [3H]-NECA radioligand binding test
# Conditions: [3H]-NECA 37 nM; membrane from HEK-293 cells transfected with human adenosine A2a receptor
# Procedure, shortened: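 Membranes from HEK-293 cells expressing human A2a receptor were incubated with [3H]-NECA (final 37 nM) and compound for 1 h at room temperature in 50 mM Tris, 10 mM MgCl2, 1 mM EDTA, pH 7.4. Bound ligand was filtered on PEI-coated plates and counted by scintillation to derive IC50 (μM).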
# human adenosine A2a receptor, sequence (P29274 whole entry): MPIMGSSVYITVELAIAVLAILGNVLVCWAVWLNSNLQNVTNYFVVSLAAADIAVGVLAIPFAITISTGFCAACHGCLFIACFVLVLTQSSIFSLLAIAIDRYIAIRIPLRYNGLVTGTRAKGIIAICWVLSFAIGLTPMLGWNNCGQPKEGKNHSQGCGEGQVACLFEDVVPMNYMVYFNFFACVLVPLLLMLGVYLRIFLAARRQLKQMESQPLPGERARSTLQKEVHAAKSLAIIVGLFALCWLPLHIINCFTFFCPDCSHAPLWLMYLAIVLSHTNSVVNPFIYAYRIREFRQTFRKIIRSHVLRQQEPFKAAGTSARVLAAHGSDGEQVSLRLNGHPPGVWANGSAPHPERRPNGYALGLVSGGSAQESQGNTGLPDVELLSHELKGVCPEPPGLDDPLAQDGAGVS
row,IC50 [nM],SMILES
1,16,"CCCCN1CCN(C(=O)[C@@H](Nc2nc(N)n3nc(-c4ccco4)nc3n2)C2CC2)CC1 [Example 176, (S)-2-((7-amino-2-(furan-2-yl)-[1,2,4]triazolo[1,5-a][1,3,5]triazin-5-yl)amino)-1-(4-butylpiperazin-1-yl)-2-cyclopropylethan-1-one]"
2,20,"CCCCN1CCN(C(=O)[C@@H](Nc2nc(N)n3nc(-c4ccco4)nc3n2)C2CCC2)CC1 [Example 177, (S)-2-((7-amino-2-(furan-2-yl)-[1,2,4]triazolo[1,5-a][1,3,5]triazin-5-yl)amino)-1-(4-butylpiperazin-1-yl)-2-cyclobutylethan-1-one]"
3,10,"CCCCN1CCN(C(=O)[C@@H](Nc2nc(N)n3nc(-c4ccco4)nc3n2)C2CCCC2)CC1 [Example 178, (S)-2-((7-amino-2-(furan-2-yl)-[1,2,4]triazolo[1,5-a][1,3,5]triazin-5-yl)amino)-1-(4-butylpiperazin-1-yl)-2-cyclopentylethan-1-one]"
4,11,"C[C@H]1CN(C(=O)Nc2ccccc2)CCN1C(=O)[C@@H]1CCCN1c1nc(N)n2nc(-c3ccco3)nc2n1 [Example 181, (S)-4-((7-amino-2-(furan-2-yl)-[1,2,4]triazolo [1,5-a][1,3,5]triazine-5-yl)-L-prolyl)-3-methyl-N-phenylpiperazin-1-carboxamide]"
5,8,"C[C@@H]1CN(C(=O)Nc2ccccc2)CCN1C(=O)[C@@H]1CCCN1c1nc(N)n2nc(-c3ccco3)nc2n1 [Example 182, (R)-4-((7-amino-2-(furan-2-yl)-[1,2,4]triazolo[1,5-a][1,3,5]triazine-5-yl)-L-prolyl)-3-methyl-N-phenylpiperazin-1-carboxamide]"
6,2,"Nc1nc(N2CCC[C@H]2C(=O)N2CCC3(CC2)CN(C(=O)Nc2ccccc2)C3)nc2nc(-c3ccco3)nn12 [Example 183, 7-((7-amino-2-(furan-2-yl)-[1,2,4]triazolo[1,5-a][1,3,5]triazin-5-yl)-L-prolyl)-N-phenyl-2,7-diazaspiro[3.5]nonane-2-carboxamide]"
7,12,"Nc1nc(N2CCC[C@H]2C(=O)N2CCC(C3CCN(C(=O)Nc4ccccc4)CC3)CC2)nc2nc(-c3ccco3)nn12 [Example 184, 1′-((7-amino-2-(furan-2-yl)-[1,2,4]triazolo[1,5-a][1,3,5]triazin-5-yl)-L-prolyl)-N-phenyl-[4,4′-bipiperidine]-1-carboxamide]"
8,3,"CCC(O)(CC)CN1CCN(C(=O)[C@@H](Nc2nc(N)n3nc(-c4ccco4)nc3n2)C2CCCCC2)CC1 [Example 185, (S)-2-((7-amino-2-(furan-2-yl)-[1,2,4]triazolo[1,5-a][1,3,5]triazin-5-yl)amino)-2-cyclohexyl-1-(4-(2-ethyl-2-hydroxybutyl)piperazin-1-yl)ethan-1-one]"
9,9,"Nc1nc(N[C@H](C(=O)N2CCC(N3CC(F)(F)C3)CC2)C2CCCCC2)nc2nc(-c3ccco3)nn12 [Example 186, (S)-2-((7-amino-2-(furan-2-yl)-[1,2,4]triazolo[1,5-a][1,3,5]triazin-5-yl)amino)-2-cyclohexyl-1-(4-(3,3-difluoroazetidin-1-yl)piperidin-1-yl)ethan-1-one]"
10,10,"CCCCN1CCN(C(=O)[C@@H](Nc2nc(N)n3nc(-c4ccco4)nc3n2)C2CCCCC2)CC1 [Example 187, (S)-2-((7-amino-2-(furan-2-yl)-[1,2,4]triazolo[1,5-a][1,3,5]triazin-5-yl)amino)-1-(4-butylpiperazin-1-yl)-2-cyclohexylethan-1-one]"
11,10,"COCCN1CCN(C(=O)[C@@H](Nc2nc(N)n3nc(-c4ccco4)nc3n2)C2CCCCC2)CC1 [Example 188, (S)-2-((7-amino-2-(furan-2-yl)-[1,2,4]triazolo[1,5-a][1,3,5]triazin-5-yl)amino)-2-cyclohexyl-1-(4-(2-methoxyethyl)piperazin-1-yl)ethan-1-one]"
12,9,"CCCCN1CCN(C(=O)[C@@H]2CCCN2c2nc(N)n3nc(-c4ccc(C)o4)nc3n2)CC1 [Example 189, (S)-(1-(7-amino-2-(5-methylfuran-2-yl)-[1,2,4]triazolo[1,5-a][1,3,5]triazin-5-yl)pyrrolidin-2-yl)(4-butylpiperazin-1-yl)methanone]"
13,8,"CCCCN1CCN(C(=O)[C@@H](Nc2nc(N)n3nc(-c4ccco4)nc3n2)c2ccccc2)CC1 [Example 190, (S)-2-((7-amino-2-(furan-2-yl)-[1,2,4]triazolo[1,5-a][1,3,5]triazin-5-yl)amino)-1-(4-butylpiperazin-1-yl)-2-phenylethan-1-one]"
14,6,"CCCCN1CCN(C(=O)[C@H](Cc2ccccc2)Nc2nc(N)n3nc(-c4ccco4)nc3n2)CC1 [Example 191, (S)-2-((7-amino-2-(furan-2-yl)-[1,2,4]triazolo[1,5-a][1,3,5]triazin-5-yl)amino)-1-(4-butylpiperazin-1-yl)-3-phenylpropan-1-one]"
15,17,Nc1nc(N2CCC[C@H]2C(=O)N2CCN(C(=O)c3ccccc3)CC2)nc2nc(-c3nccs3)nn12 [Example 192]
16,10,"Nc1nc(N2CCC[C@H]2C(=O)N2CCN(Cc3ccccc3)CC2)nc2nc(-c3nccs3)nn12 [Example 193, (S)-(1-(7-amino-2-(thiazol-2-yl)-[1,2,4]triazolo[1,5-a][1,3,5]triazin-5-yl)pyrrolidin-2-yl)(4-benzylpiperazin-1-yl)methanone]"
17,12,"C[C@H](Nc1nc(N)n2nc(-c3nccs3)nc2n1)C(=O)N1CCN(c2ccc(F)cc2F)CC1 [Example 194, (S)-2-((7-amino-2-(thiazol-2-yl)-[1,2,4]triazolo[1,5-a][1,3,5]triazin-5-yl)amino)-1-(4-(2,4-difluorophenyl)piperazin-1-yl)propan-1-one]"
18,3,"CC(C)(F)CN1CCN(C(=O)[C@@H](Nc2nc(N)n3nc(-c4ccco4)nc3n2)c2ccccc2)CC1 [Example 195, (S)-2-((7-amino-2-(furan-2-yl)-[1,2,4]triazolo[1,5-a][1,3,5]triazin-5-yl)amino)-1-(4-(2-fluoro-2-methylpropyl)piperazin-1-yl)-2-phenylethan-1-one]"
19,8,"Cc1ccc(-c2nc3nc(N4CCC[C@H]4C(=O)N4CCN(CC(F)(F)F)C[C@H]4C)nc(N)n3n2)o1 [Example 196, ((S)-1-(7-amino-2-(5-methylfuran-2-yl)-[1,2,4]triazolo[1,5-a][1,3,5]triazin-5-yl)pyrrolidin-2-yl)((R)-2-methyl-4-(2,2,2-trifluoroethyl)piperazin-1-yl)methanone]"

row,SMILES,IC50 [nM]
1,"Nc1nc(N2CCC[C@H]2C(=O)N2CC3CCC(C2)N3C(=O)Nc2ccccc2)nc2nc(-c3ccco3)nn12 [Example 179, 3-((7-amino-2-(furan-2-yl)-[1,2,4]triazolo[1,5-a][1,3,5]triazin-5-yl)-L-prolyl)-N-phenyl-3,8-diazabicyclo[3.2.1]octane-8-carboxamide]",5
2,"Nc1nc(N2CCC[C@H]2C(=O)N2C3CCC2CN(C(=O)Nc2ccccc2)C3)nc2nc(-c3ccco3)nn12 [Example 180, 8-((7-amino-2-(furan-2-yl)-[1,2,4]triazolo[1,5-a][1,3,5]triazin-5-yl)-L-prolyl)-N-phenyl-3,8-diazabicyclo[3.2.1]octane-3-carboxamide]",7
